The source of these data is US20110039762A1, “TARGETED ANTIMICROBIAL MOIETIES” (C3 JIAN, INC., priority 2009, published 2011).

One assay concerns C. jejuni. The assay can be described thus: Kill or inhibit growth/proliferation; morphology, biofilm and growth disruption (Tables 5, 6). Further: test concentration or dose not given here. The format is cell-based, Campylobacter jejuni. Set-up: key: A: Peptide aggregates; B: Less hyphal formation; Clumps; Diffuse clumps and small polyps; F: Diffuse growth; H: Thin; I: Growth inhibition; Microcolony formation; Rippled; Small polyps; Thick; W: Halo formation on top, microlonies on bottom.

The next assay relates to S. pneumoniae. The assay is described as above. On the set-up: key: A: Peptide aggregates; B: Less hyphal formation; Clumps; Diffuse clumps and small polyps; F: Diffuse growth; H: Thin; I: Growth inhibition; Microcolony formation; Rippled; Small polyps; Thick; W: Halo formation on top, microlonies on bottom. The format is cell-based, Streptococcus pneumoniae.
The test system of the next assay is B. subtilis. The description is as above. The format is cell-based, Bacillus subtilis. Set-up: key: A: Peptide aggregates; B: Less hyphal formation; Clumps; Diffuse clumps and small polyps; F: Diffuse growth; H: Thin; I: Growth inhibition; Microcolony formation; Rippled; Small polyps; Thick; W: Halo formation on top, microlonies on bottom. Further: test concentration or dose not given here.
In the next assay the test system is MRSA. Described as above. On the set-up: key: A: Peptide aggregates; B: Less hyphal formation; Clumps; Diffuse clumps and small polyps; F: Diffuse growth; H: Thin; I: Growth inhibition; Microcolony formation; Rippled; Small polyps; Thick; W: Halo formation on top, microlonies on bottom. The format is cell-based, Methicillin-resistant Staphylococcus aureus. Further: test concentration or dose not given here.
For a further assay, the system named is S. epidermidis. The assay is described as above. The format is cell-based, Staphylococcus epidermidis. On the set-up: key: A: Peptide aggregates; B: Less hyphal formation; Clumps; Diffuse clumps and small polyps; F: Diffuse growth; H: Thin; I: Growth inhibition; Microcolony formation; Rippled; Small polyps; Thick; W: Halo formation on top, microlonies on bottom.

Another assay relates to C. albicans. Described as above. The format is cell-based, Candida albicans. On the set-up: key: A: Peptide aggregates; B: Less hyphal formation; Clumps; Diffuse clumps and small polyps; F: Diffuse growth; H: Thin; I: Growth inhibition; Microcolony formation; Rippled; Small polyps; Thick; W: Halo formation on top, microlonies on bottom.
In a further assay the test system is microorganisms. The assay can be described thus: Peptides having multiple activities (targeting/binding, antimicrobial, growth or phenotype altering). From the text:
In certain embodiments, peptides described herein can have multiple activities. Thus for example, a peptide can have both binding/targeting activity and antimicrobial activity. Such peptides can be used, e.g., in a chimeric construct, for any or all of these properties. Thus, for example, a peptide designated “B” in Table 8 can be used as a targeting peptide. If it is also designated G or M it can also be used for antimicrobial activity.

Another assay relates to M. luteus. The assay can be described thus: Kill or inhibit growth/proliferation; morphology, biofilm and growth disruption (Tables 5, 6). Further: test concentration or dose not given here. The format is cell-based, Micrococcus luteus. Set-up: key: A: Peptide aggregates; B: Less hyphal formation; Clumps; Diffuse clumps and small polyps; F: Diffuse growth; H: Thin; I: Growth inhibition; Microcolony formation; Rippled; Small polyps; Thick; W: Halo formation on top, microlonies on bottom.

Assay [1] relates to microorganisms (e.g., bacteria, yeasts, fungi). The assay can be described thus: Targeting peptide binding to target microorganisms (Table 3). To be noted: preferably 1x PBS; for Target(s) (microorganisms bound by the targeting peptide): peptide binding in aqueous buffers varied by peptide solubility.
For another assay, the system named is E. faecalis. The assay can be described thus: Kill or inhibit growth/proliferation; morphology, biofilm and growth disruption (Tables 5, 6). Further: test concentration or dose not given here. The format is cell-based, Enterococcus faecalis. Set-up: key: A: Peptide aggregates; B: Less hyphal formation; Clumps; Diffuse clumps and small polyps; F: Diffuse growth; H: Thin; I: Growth inhibition; Microcolony formation; Rippled; Small polyps; Thick; W: Halo formation on top, microlonies on bottom.

The next assay concerns C. jeikeium. The assay is described as above. On the set-up: key: A: Peptide aggregates; B: Less hyphal formation; Clumps; Diffuse clumps and small polyps; F: Diffuse growth; H: Thin; I: Growth inhibition; Microcolony formation; Rippled; Small polyps; Thick; W: Halo formation on top, microlonies on bottom. The format is cell-based, Corynebacterium jeikeium. Further: test concentration or dose not given here.
A further assay has as its system S. mutans. Described as above. The format is cell-based, Streptococcus mutans. Set-up: key: A: Peptide aggregates; B: Less hyphal formation; Clumps; Diffuse clumps and small polyps; F: Diffuse growth; H: Thin; I: Growth inhibition; Microcolony formation; Rippled; Small polyps; Thick; W: Halo formation on top, microlonies on bottom. Further: test concentration or dose not given here.
The next assay concerns E. coli. The assay is described as above. The format is cell-based, Escherichia coli. On the set-up: key: A: Peptide aggregates; B: Less hyphal formation; Clumps; Diffuse clumps and small polyps; F: Diffuse growth; H: Thin; I: Growth inhibition; Microcolony formation; Rippled; Small polyps; Thick; W: Halo formation on top, microlonies on bottom.

“Also recorded” adds a separate entry of the source.
Wherever Organism, effect (morphology, biofilm and growth disruption) is given: test concentration or dose not given here.
Wherever Organism, effect is given: test concentration or dose not given here.

On to HCVIGNVVDIANLLKRRAVYRDIADVIKMR [PF-071], for which the “Organism, effect” value with C. jejuni was “C. jejuni (A)”; in the assay on S. pneumoniae, “S. pneumoniae (A)”; in the assay on B. subtilis it was “B. subtilis (D)”; in the assay on MRSA it was “MRSA (C)”; with S. epidermidis, “S. epidermidis (R)”; in the assay on C. albicans, “C. albicans (B)”. For the same substance, the “Organism, effect” value with M. luteus was “M. luteus (R)”. The Activities result with microorganisms was “G B”. For the same substance, in assay [1] (microorganism the targeting peptide binds, binding in aqueous buffers varied by peptide solubility), the “Target(s)” value is “S. epidermidis and E. coli and P. aeruginosa and C. albicans and MRSA and S. pneumoniae and E. faecalis”.

For “PF-632: peptide having multiple activities (chain 1 TTIQGVASLEKHGFRYTIIYPTRI; chain 2 TTIQGVASLEKHGFRYTIIYPTRI; Peptide with targeting and/or antimicrobial activity)”, the “Organism, effect” value in the assay with S. pneumoniae was “S. pneumoniae (M)”; with B. subtilis it was “B. subtilis (H)”; with MRSA, “MRSA (D)”; in the assay with S. epidermidis, “S. epidermidis (D)”; in the assay on C. albicans it was “C. albicans (B)”; with E. faecalis, “E. faecalis (D)”. In addition, in the assay with C. jeikeium, the “Organism, effect” value was “C. jeikeium (D)”. The Activities entry in the assay on microorganisms is listed as “G B”. Also, in assay [1], the “Target(s) (microorganisms bound by the targeting peptide)” value is “S. epidermidis and P. aeruginosa and C. albicans and MRSA and S. pneumoniae and E. faecalis and C. jeikeium”.

On to “PF-C281: peptide having multiple activities (KKEKLLTAIRLQHRAEIRGYFTIFFLFFRI; Peptide with targeting and/or antimicrobial activity)”, for which the Activities result with microorganisms is “G B”. Also, the “Target(s) (microorganisms bound by the targeting peptide)” value in [1] was “A. naeslundii; also recorded: F. nucleatum; also recorded: P. gingivalis; also recorded: S. mutans; also recorded: T. denticola”. Moreover, the “Organism, effect (morphology, biofilm and growth disruption)” value in the assay with S. mutans is “S. mutans (F)”.

For “PF-636: peptide having multiple activities (chain 1 LVRLA; chain 2 LVRLA; Peptide with targeting and/or antimicrobial activity)”, the “Organism, effect” value with S. pneumoniae is recorded as “S. pneumoniae (H)”; in the assay on B. subtilis, “B. subtilis (H)”; in the assay with C. albicans, “C. albicans (B)”; in the assay on E. faecalis it was “E. faecalis (H)”. In addition, the Activities entry in the assay with microorganisms was “G B”. The “Target(s) (microorganisms bound by the targeting peptide)” value in assay [1] is “S. epidermidis and C. albicans and MRSA and S. pneumoniae and E. faecalis”.

In the case of KKFKIFVIINWFYHKYIILNFEENF [PF-C085], the Activities result with microorganisms is on record as “G B”. In assay [1], the “Target(s) (microorganisms bound by the targeting peptide)” value is “A. naeslundii; also recorded: F. nucleatum; also recorded: P. gingivalis; also recorded: S. mutans; also recorded: T. denticola”. In addition, the “Organism, effect (morphology, biofilm and growth disruption)” value with S. mutans is on record as “S. mutans (F)”.

As to “PF-175: peptide having multiple activities (RRRPAGQRPEKASQAMIAA; Peptide with targeting and/or antimicrobial activity)”, the “Organism, effect” value is “C. jejuni (M)” in the assay on C. jejuni; “S. pneumoniae (A)” in the assay on S. pneumoniae; “B. subtilis (D)” with B. subtilis; “C. albicans (B)” in the assay on C. albicans; “M. luteus (S)” with M. luteus. In addition, the Activities result with microorganisms was “G B”. Also, in assay [1] (microorganism(s) the targeting peptide binds, binding in aqueous buffers depending on peptide solubility), the “Target(s)” value was “S. epidermidis; also recorded: E. faecalis”.

As for “PF-426: peptide having multiple activities (MLQKYTQMISVTKCIITKNKKTQENVDAYN; Peptide with targeting and/or antimicrobial activity)”, the “Organism, effect” value in the assay on C. jejuni is “C. jejuni (D)”; in the assay with S. pneumoniae, “S. pneumoniae (D)”; in the assay on MRSA, “MRSA (D)”; in the assay on S. epidermidis it was “S. epidermidis (D)”; with C. albicans, “C. albicans (A)”; in the assay with E. faecalis, “E. faecalis (D)”. Further, in the assay on E. coli, the “Organism, effect” value is on record as “E. coli (C)”. Besides, the Activities entry in the assay on microorganisms is “G B”. Further, the “Target(s)” value in assay [1] (microorganism(s) the targeting peptide binds, peptide binding conducted in aqueous buffers varied by peptide solubility) is “S. epidermidis and E. coli and P. aeruginosa and C. albicans and MRSA and S. pneumoniae and E. faecalis and C. jeikeium”.

“GNVHPESDFHNLIQFIKTFLYFTIFFKYFL [PF-C290]”: in the assay on microorganisms, the Activities result was “G B”. Besides, in assay [1], the “Target(s) (microorganisms bound by the targeting peptide)” value is given as “A. naeslundii; also recorded: F. nucleatum; also recorded: P. gingivalis; also recorded: S. mutans; also recorded: T. denticola”. Also, the “Organism, effect (morphology, biofilm and growth disruption)” value in the assay on S. mutans is reported as “S. mutans (F)”.

Take “PF-668 (chain 1 TNAESMALAFRGRVHMSVNIAGLT; chain 2 TNAESMALAFRGRVHMSVNIAGLT; Peptide with targeting and/or antimicrobial activity)”: the “Organism, effect (morphology, biofilm and growth disruption)” value is reported as “S. pneumoniae (M)” in the assay on S. pneumoniae; “B. subtilis (A)” in the assay with B. subtilis; “MRSA (R)” in the assay on MRSA; “S. epidermidis (M)” in the assay on S. epidermidis; “C. albicans (A)” in the assay on C. albicans; “E. faecalis (D)” in the assay on E. faecalis. Moreover, the “Organism, effect (morphology, biofilm and growth disruption)” value with C. jeikeium is given as “C. jeikeium (D)”. In assay [1], the “Target(s) (microorganisms bound by the targeting peptide)” value is “Mycobacteria spp”.

For “PF-686: peptide having multiple activities (chain 1 LAVLMGYIGYRGWSGKRHINRQ; chain 2 LAVLMGYIGYRGWSGKRHINRQ; Peptide with targeting and/or antimicrobial activity)”, the “Organism, effect (morphology, biofilm and growth disruption)” value is reported as “S. pneumoniae (A)” in the assay with S. pneumoniae; “B. subtilis (I)” in the assay with B. subtilis; “MRSA (M)” in the assay on MRSA; “S. epidermidis (H)” in the assay with S. epidermidis; “C. albicans (B)” in the assay on C. albicans; “E. faecalis (R)” in the assay on E. faecalis. In addition, the Activities result in the assay with microorganisms is on record as “G B”. Besides, the “Target(s) (microorganisms bound by the targeting peptide)” value in [1] is given as “M. smegmatis”.

With “PF-057: peptide having multiple activities (chain 1 TMIVISIPRFEEYMKARHKKWM; chain 2 TMIVISIPRFEEYMKARHKKWM; Peptide with targeting and/or antimicrobial activity)”, the “Organism, effect” value is “C. jejuni (D)” with C. jejuni; “S. pneumoniae (R)” in the assay with S. pneumoniae; “MRSA (M)” with MRSA; “S. epidermidis (D)” with S. epidermidis; “C. albicans (A)” with C. albicans; “E. faecalis (A)” with E. faecalis. The results for the “Organism, effect” value in the assay with M. luteus, in the assay on C. jeikeium and with E. coli were “M. luteus (C)”, “C. jeikeium (A)” and “E. coli (M)”, respectively. Moreover, the Activities entry with microorganisms is reported as “G B”.
